Experimental data as given in patent US6887873B2, “Triazine derivatives and their application as antitelomerase agents” (Aventis Pharma S.A., priority 2001, dated 2005).
Read-outs that look alike come from different tables or passages of the source.

Key:
[1] = test system: A549 cells; test: Cytotoxic activity on human tumour line A549, neutral red, 96 hours; assay type: cell-based; conditions: read-out: Cytotox. A549 IC50
Description: The cytotoxic biological activity on human tumour lines is determined according to the following experimental protocol:
The human cell lines A549 are obtained from ATCC (American Type Culture Collection, Rockville, USA). The A549 cells are cultured in a layer in a culture flask in RPMI 1640 medium containing L-glutamine at 2 mM, penicillin 200 U/ml, streptomycin 200 μg/ml and supplemented with 10% heat-inactivated foetal calf serum. The KB cells are cultured in a layer in a culture flask in Dulbelco's medium containing L-glutamine at 2 mM, penicillin 200 U/ml, streptomycin 200 μg/ml and supplemented with 10% heat-inactivated foetal calf serum.
The cells at the exponential growth phase are trypsinized, washed in 1×PBS and are inoculated in 96-well microplates (Costar) in an amount of 4×10^4 cells/ml for A549 and of 1.5×10^4 cells/ml (0.2 ml/well) and then incubated for 96 hours in the presence of variable concentrations of product to be studied (10, 1, 0.1 and 0.01 μM, each point in quadruplicate). 16 hours before the end of the incubation, 0.02% final of neutral red is added to each well. At the end of the incubation, the cells are washed with 1×PBS and lysed with 1% sodium lauryl sulphate. The cellular incorporation of the dye, which reflects cellular growth, is evaluated by spectro-photometry at a wavelength of 540 nm for each sample with the aid of a Dynatech MR5000 reading apparatus.
For each compound concentration tested, the results are expressed as percentage of inhibition of cellular growth and calculated from the untreated control and the culture medium free of cells (blank) according to the following formula: (compound value−blank value/cell control value−blank value)×100.
The concentration of compound inducing a 50% inhibition of growth (IC50) is determined with the aid of a semilogarithmic graphical representation of the inhibition values obtained as a function of each of the compound concentrations tested.
A compound is considered to be active as cytotoxic agent if the concentration inhibiting the growth of the tumour cells tested by 50% is in particular less than 10 μM.

[2] = test system: human telomerease (HL60 cell extract); test: Antitelomerease activity: extension of oligonucleotide TS followed by PCR amplification, with HL60 extract; assay type: biochemical; conditions: read-out: TRAP IC50
In short: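 HL60 CHAPS-lysate extract extends TS primer (15 min, 30 °C) with compound at 10, 1, 0.1 and 0.01 µM, followed by 30-cycle PCR with TS and CXext. Products resolved on 12% acrylamide and quantified; % inhibition versus enzyme control and blank, IC50 read from semilog plot.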

Structure (SMILES) | IC50 ([1]; Homo sapiens, A549, A549) | IC50 [2] | IC50 ([1]; A549)
Cc1cc(N(C)C)c2cc(Nc3nc(Nc4ccc5nc(C)cc(N(C)C)c5c4)nc(N4CCN(c5ccncc5)CC4)n3)ccc2n1 [Example 144, 2,4-bis(4-dimethylamino-2-methylquinolin-6-yl)amino-6-[1-(pyridin-4-yl)piperazin-4-yl]-[1,3,5]triazine] | 40 nM | 400 nM | 
Cc1cc(N(C)C)c2cc(Nc3nc(NCc4ccncc4)nc(Nc4ccc5nc(C)cc(N(C)C)c5c4)n3)ccc2n1 [Example 145] |  | 1000 nM | 420 nM
CCN(CCN(C)C)c1nc(Nc2ccc3nc(C)cc(N(C)C)c3c2)nc(Nc2ccc3nc(C)cc(N(C)C)c3c2)n1 [Example 146] | 175 nM | 600 nM | 
CC1=NCCN1c1nc(Nc2ccc3nc(C)cc(N(C)C)c3c2)nc(Nc2ccc3nc(C)cc(N(C)C)c3c2)n1 [Example 148] | 1500 nM | 1500 nM | 
Cc1cc(N(C)C)c2cc(Nc3nc(Nc4ccc5nc(C)cc(N(C)C)c5c4)nc(N4CCC[C@H]4CN4CCCC4)n3)ccc2n1 [Example 149, 2,4-bis(4-dimethylamino-2-methylquinolin-6-yl)amino-6-[2(S)-(pyrrolidin-1-yl)methylpyrrolidin-1-yl]-[1,3,5]triazine] | 96 nM | 2500 nM | 
CC(=O)NCCNc1nc(Nc2ccc3nc(C)cc(N(C)C)c3c2)nc(Nc2ccc3nc(C)cc(N(C)C)c3c2)n1 [Example 150] | 2470 nM | 2500 nM | 
